According to patent publication US9073855B2, “BCL-2 selective apoptosis-inducing agents for the treatment of cancer and immune diseases” (AbbVie Inc., priority 2008, dated 2015):
pEC50, pKi: −log10 of the molar value.

Key:
GST-Bcl-2 = GST-Bcl-2 (Homo sapiens, UniProt P10415); test: TR-FRET binding assay, GST-Bcl-2 with F-Bak peptide probe; settings: TR-FRET Binding Affinity, GST-Bcl-2, F-Bak peptide probe
Method in brief: (§1)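 Competitive TR-FRET: GST-fusion protein, fluorescent Bak peptide probe and Tb-labelled anti-GST antibody incubated with compound dilution series (starting 50 μM as 2× stock, 10% DMSO) for 3 h at RT. Excitation 340/35 nm; Ki derived via Wang's exact competitive-binding equation.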

GST-Bcl-XL = GST-Bcl-XL (Homo sapiens, UniProt Q07817); test: TR-FRET binding assay, GST-Bcl-XL with F-Bak peptide probe; settings: TR-FRET Binding Affinity, GST-Bcl-XL, F-Bak peptide probe
Sequence of GST-Bcl-XL (Q07817 whole entry): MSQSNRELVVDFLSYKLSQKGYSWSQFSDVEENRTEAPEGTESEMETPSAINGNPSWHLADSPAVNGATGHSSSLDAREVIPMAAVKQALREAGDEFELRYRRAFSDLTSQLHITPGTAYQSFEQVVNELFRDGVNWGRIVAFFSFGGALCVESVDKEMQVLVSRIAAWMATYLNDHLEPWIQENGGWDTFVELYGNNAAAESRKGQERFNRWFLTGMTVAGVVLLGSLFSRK
Method in brief: as §1

FL5.12/Bcl-2 cells = test: FL5.12/Bcl-2 cell viability assay under IL-3 withdrawal (CellTitre Glo); format: cell-based, murine; settings: Mus musculus, IL-3 withdrawn 48 hrs, then 24 hrs with compound
Method in brief: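 Murine IL-3-dependent FL5.12 cells stably overexpressing Bcl-2 were deprived of IL-3 (WEHI-3B conditioned medium omitted) for 48 hrs, then exposed to various compound concentrations for a further 24 hrs at 37° C, 5% CO2. Viability was read by CellTitre Glo luminescence.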

Sequence of GST-Bcl-2 (P10415 whole entry, the tested form may be a part): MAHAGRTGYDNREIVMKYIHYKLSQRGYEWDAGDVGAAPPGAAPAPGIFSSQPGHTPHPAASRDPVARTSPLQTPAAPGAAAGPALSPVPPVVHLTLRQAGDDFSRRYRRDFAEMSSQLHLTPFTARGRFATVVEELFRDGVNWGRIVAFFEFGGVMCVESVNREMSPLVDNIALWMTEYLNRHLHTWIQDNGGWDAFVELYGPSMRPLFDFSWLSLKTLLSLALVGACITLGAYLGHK

Row | SMILES | pKi (GST-Bcl-2) | pKi (GST-Bcl-XL) | pEC50 (FL5.12/Bcl-2 cells)
1 | CC1(C)CCC(CN2CCN(c3ccc(C(=O)NS(=O)(=O)c4ccc(NCC5CCOCC5)c(S(=O)(=O)C(F)(F)F)c4)c(Oc4cccc5[nH]ccc45)c3)CC2)=C(c2ccc(Cl)cc2)C1 [Example 303, 4-(4-{[2-(4-chlorophenyl)-4,4-dimethylcyclohex-1-en-1-yl]methyl}piperazin-1-yl)-2-(1H-indol-4-yloxy)-N-({4-[(tetrahydro-2H-pyran-4-ylmethyl)amino]-3-[(trifluoromethyl)sulfonyl]phenyl}sulfonyl)benzamide] | 8.83 | < 6.18 | < 6.30
2 | CC1(C)CCC(CN2CCN(c3ccc(C(=O)NS(=O)(=O)c4ccc(NC5CCC(F)(F)CC5)c([N+](=O)[O-])c4)c(Oc4ccc5[nH]ccc5c4)c3)CC2)=C(c2ccc(Cl)cc2)C1 [Example 305, 4-(4-{[2-(4-chlorophenyl)-4,4-dimethylcyclohex-1-en-1-yl]methyl}piperazin-1-yl)-N-({4-[(4,4-difluorocyclohexyl)amino]-3-nitrophenyl}sulfonyl)-2-(1H-indol-5-yloxy)benzamide] | 8.43 | < 6.18 | < 6.30
3 | CC1(C)CCC(CN2CCN(c3ccc(C(=O)NS(=O)(=O)c4ccc(OCC5(F)CCOCC5)c([N+](=O)[O-])c4)c(Oc4cccc5[nH]ccc45)c3)CC2)=C(c2ccc(Cl)cc2)C1 [Example 306, 4-(4-{[2-(4-chlorophenyl)-4,4-dimethylcyclohex-1-en-1-yl]methyl}piperazin-1-yl)-N-({4-[(4-fluorotetrahydro-2H-pyran-4-yl)methoxy]-3-nitrophenyl}sulfonyl)-2-(1H-indol-4-yloxy)benzamide] | 10.11 | 7.32 | 8.15
4 | CC(C)n1cc(CN2CCN(c3ccc(C(=O)NS(=O)(=O)c4ccc(NCC5CCOCC5)c([N+](=O)[O-])c4)c(Oc4ccc5[nH]ccc5c4)c3)CC2)c(-c2ccc(Cl)cc2)cc1=O [Example 307, 4-(4-{[4-(4-chlorophenyl)-1-isopropyl-6-oxo-1,6-dihydropyridin-3-yl]methyl}piperazin-1-yl)-2-(1H-indol-5-yloxy)-N-({3-nitro-4-[(tetrahydro-2H-pyran-4-ylmethyl)amino]phenyl}sulfonyl)benzamide] | 8.43 | < 6.18 | < 6.30
5 | CC1(C)CCC(CN2CCN(c3ccc(C(=O)NS(=O)(=O)c4ccc(C(=O)NCC5CCOCC5)cc4)c(Oc4ccc5[nH]ccc5c4)c3)CC2)=C(c2ccc(Cl)cc2)C1 [Example 308, 4-(4-{[2-(4-chlorophenyl)-4,4-dimethylcyclohex-1-en-1-yl]methyl}piperazin-1-yl)-2-(1H-indol-5-yloxy)-N-[(4-{[(tetrahydro-2H-pyran-4-ylmethyl)amino]carbonyl}phenyl)sulfonyl]benzamide] | 7.24 | < 6.18 | < 6.30
6 | COCCNc1ccc(S(=O)(=O)NC(=O)c2ccc(N3CCN(CC4=C(c5ccc(Cl)cc5)CC(C)(C)CC4)CC3)cc2Oc2cccc3[nH]ccc23)cc1S(=O)(=O)C(F)(F)F [Example 309, 4-(4-{[2-(4-chlorophenyl)-4,4-dimethylcyclohex-1-en-1-yl]methyl}piperazin-1-yl)-2-(1H-indol-4-yloxy)-N-({4-[(2-methoxyethyl)amino]-3-[(trifluoromethyl)sulfonyl]phenyl}sulfonyl)benzamide] | 8.35 | < 6.18 | < 6.30
7 | CC1(C)CCC(CN2CCN(c3ccc(C(=O)NS(=O)(=O)c4ccc(NC[C@H]5CC[C@H](O)CC5)c([N+](=O)[O-])c4)c(Oc4ccc5[nH]ccc5c4)c3)CC2)=C(c2ccc(Cl)cc2)C1 [Example 310, Trans-4-(4-{[2-(4-chlorophenyl)-4,4-dimethylcyclohex-1-en-1-yl]methyl}piperazin-1-yl)-N-[(4-{[(4-hydroxycyclohexyl)methyl]amino}-3-nitrophenyl)sulfonyl]-2-(1H-indol-5-yloxy)benzamide] | 10.31 | < 6.18 | 8.35
8 | CO[C@H]1CC[C@H](CNc2ccc(S(=O)(=O)NC(=O)c3ccc(N4CCN(CC5=C(c6ccc(Cl)cc6)CC(C)(C)CC5)CC4)cc3Oc3ccc4[nH]ccc4c3)cc2[N+](=O)[O-])CC1 [Example 311, Trans-4-(4-{[2-(4-chlorophenyl)-4,4-dimethylcyclohex-1-en-1-yl]methyl}piperazin-1-yl)-2-(1H-indol-5-yloxy)-N-[(4-{[(4-methoxycyclohexyl)methyl]amino}-3-nitrophenyl)sulfonyl]benzamide] | 9.59 | < 6.18 | 7.48
9 | CC1(C)CCC(CN2CCN(c3ccc(C(=O)NS(=O)(=O)c4ccc(NC[C@H]5CC[C@@H](O)CC5)c([N+](=O)[O-])c4)c(Oc4ccc5[nH]ccc5c4)c3)CC2)=C(c2ccc(Cl)cc2)C1 [Example 312, Cis-4-(4-{[2-(4-chlorophenyl)-4,4-dimethylcyclohex-1-en-1-yl]methyl}piperazin-1-yl)-N-[(4-{[(4-hydroxycyclohexyl)methyl]amino}-3-nitrophenyl)sulfonyl]-2-(1H-indol-5-yloxy)benzamide] | 9.47 | < 6.18 | 7.72
10 | CO[C@H]1CC[C@@H](CNc2ccc(S(=O)(=O)NC(=O)c3ccc(N4CCN(CC5=C(c6ccc(Cl)cc6)CC(C)(C)CC5)CC4)cc3Oc3ccc4[nH]ccc4c3)cc2[N+](=O)[O-])CC1 [Example 313, Cis-4-(4-{[2-(4-chlorophenyl)-4,4-dimethylcyclohex-1-en-1-yl]methyl}piperazin-1-yl)-2-(1H-indol-5-yloxy)-N-[(4-{[(4-methoxycyclohexyl)methyl]amino}-3-nitrophenyl)sulfonyl]benzamide] | 10.36 | 7.18 | 7.08
11 | CC1(C)CCC(CN2CCN(c3ccc(C(=O)NS(=O)(=O)c4ccc(OCCC5CCOCC5)c([N+](=O)[O-])c4)c(Oc4cccc5[nH]ccc45)c3)CC2)=C(c2ccc(Cl)cc2)C1 [Example 314, 4-(4-{[2-(4-chlorophenyl)-4,4-dimethylcyclohex-1-en-1-yl]methyl}piperazin-1-yl)-2-(1H-indol-4-yloxy)-N-{[3-nitro-4-(2-tetrahydro-2H-pyran-4-ylethoxy)phenyl]sulfonyl}benzamide] | 8.51 | < 6.18 | 6.62
12 | CC1(C)CCC(CN2CCN(c3ccc(C(=O)NS(=O)(=O)c4ccc(OCCCS(C)(=O)=O)c([N+](=O)[O-])c4)c(Oc4cccc5[nH]ccc45)c3)CC2)=C(c2ccc(Cl)cc2)C1 [Example 316, 4-(4-{[2-(4-chlorophenyl)-4,4-dimethylcyclohex-1-en-1-yl]methyl}piperazin-1-yl)-2-(1H-indol-4-yloxy)-N-({4-[3-(methylsulfonyl)propoxy]-3-nitrophenyl}sulfonyl)benzamide] | 9.83 | 7.10 | 7.17
13 | COCCCNc1ccc(S(=O)(=O)NC(=O)c2ccc(N3CCN(CC4=C(c5ccc(Cl)cc5)CC(C)(C)CC4)CC3)cc2Oc2ccc3[nH]ccc3c2)cc1[N+](=O)[O-] [Example 317, 4-(4-{[2-(4-chlorophenyl)-4,4-dimethylcyclohex-1-en-1-yl]methyl}piperazin-1-yl)-2-(1H-indol-5-yloxy)-N-({4-[(3-methoxypropyl)amino]-3-nitrophenyl}sulfonyl)benzamide] | 8.55 | < 6.18 | 7.08
14 | COCCCNc1ccc(S(=O)(=O)NC(=O)c2ccc(N3CCN(CC4=C(c5ccc(Cl)cc5)CC(C)(C)CC4)CC3)cc2Oc2cccc3[nH]ccc23)cc1[N+](=O)[O-] [Example 318, 4-(4-{[2-(4-chlorophenyl)-4,4-dimethylcyclohex-1-en-1-yl]methyl}piperazin-1-yl)-2-(1H-indol-4-yloxy)-N-({4-[(3-methoxypropyl)amino]-3-nitrophenyl}sulfonyl)benzamide] | 8.83 | 6.82 | 7.11
15 | CC1(C)CCC(CN2CCN(c3ccc(C(=O)NS(=O)(=O)c4ccc(NCCC#N)c([N+](=O)[O-])c4)c(Oc4ccc5[nH]ccc5c4)c3)CC2)=C(c2ccc(Cl)cc2)C1 [Example 319, 4-(4-{[2-(4-chlorophenyl)-4,4-dimethylcyclohex-1-en-1-yl]methyl}piperazin-1-yl)-N-({4-[(2-cyanoethyl)amino]-3-nitrophenyl}sulfonyl)-2-(1H-indol-5-yloxy)benzamide] | 9.38 | 6.68 | 7.50
16 | CC1(C)CCC(CN2CCN(c3ccc(C(=O)NS(=O)(=O)c4ccc(NCCC#N)c([N+](=O)[O-])c4)c(Oc4cccc5[nH]ccc45)c3)CC2)=C(c2ccc(Cl)cc2)C1 [Example 320, 4-(4-{[2-(4-chlorophenyl)-4,4-dimethylcyclohex-1-en-1-yl]methyl}piperazin-1-yl)-N-({4-[(2-cyanoethyl)amino]-3-nitrophenyl}sulfonyl)-2-(1H-indol-4-yloxy)benzamide] | 8.91 | 6.89 | 7.38
17 | CC1(C)CCC(CN2CCN(c3ccc(C(=O)NS(=O)(=O)c4ccc(NCC56CC7CC(C5)C(O)[C@H](C7)C6)c([N+](=O)[O-])c4)c(Oc4ccc5[nH]ccc5c4)c3)CC2)=C(c2ccc(Cl)cc2)C1 (stereo partly drawn) [Example 321, 4-(4-{[2-(4-chlorophenyl)-4,4-dimethylcyclohex-1-en-1-yl]methyl}piperazin-1-yl)-N-{[4-({[(3R)-4-hydroxy-1-adamantyl]methyl}amino)-3-nitrophenyl]sulfonyl}-2-(1H-indol-5-yloxy)benzamide] | 9.16 | < 6.18 | 7.54
